In US20110230368A1, “High Throughput Assays for TRPM7” (The Queen's Medical Center, priority 2009, published 2011):
Read-outs that look alike come from different tables or passages of the source.

How the values were obtained:
[1] = target: murine TRPM7 (Mus musculus, UniProt Q923J1); conditions: for dose dependence of inhibition of TRPM7-mediated fura-2 quench by Mn2+: serial dilutions, 15 min pre-incubation
Experimental: Wild type (non-transfected) human embryonic kidney (WT-HEK293) cells and tetracycline-inducible HEK293 cells, stably transfected with a FLAG-murine TRPM7/pcDNA4/TO construct (TRPM7-HEK293), were cultured in a humidified incubator, at 37° C. and 5% CO2, in DMEM supplemented with 10% FBS and 2 mM L-glutamine. Wild type HEK293 culture medium was supplemented with 100 U/mL penicillin and 0.10 mg/mL streptomycin. TRPM7-HEK293 culture medium was supplemented with 5 μg/mL blasticidin and 0.4 mg/mL zeocin.
TRPM7 channel conductance was monitored using a FlexStation 3 scanning fluorometer (Molecular Devices, Sunnyvale, Calif.) to monitor the Ca^2+-independent (360 nm excitation/510 nm emission) fura-2 quench by Mn^2+ in TRPM7 overexpressing HEK293 cells. The FlexStation 3 measured the fluorescent signal intensity in relative fluorescence units (RFU), at 1.5 s intervals for 60 s using a beam diameter of 1.5-2.0 mm. Following baseline measurements, Mn^2+ was added extracellularly and changes in cytosolic [Mn^2+] were monitored as the loss of relative fluorescence caused by fura-2 quenching. TRPM7-HEK293 cells (30,000, 60,000 or 120,000 cells/well) were plated in poly-L-lysine coated, black clear-bottom 96-well plates (Greiner Bio-One, Monroe, N.C.). Subsequent TRPM7-expression was induced 2-3 h post plating by the addition of 1 μg/mL tetracycline. The culture medium was completely removed at 16-18 h post induction and replaced with the following fura-2 loading-buffer: KRH buffer supplemented with 2 μM fura-2-AM, with or without 2 mM probenecid, and with or without 0.1-0.3% pluronic F-127. Following variable incubation times (30, 45 and 60 min at 25 or 37° C.) the loading buffer was removed and replaced with assay buffer (KRH). The plates were then transferred to a room temperature (25° C.) or pre-warmed (37° C.) FlexStation which also contained a clear V-bottom 96-well compound plate (Greiner Bio-One) with vehicle or appropriate test substance solutions diluted with KRH. Cells were initially incubated for 15 min with the appropriate test substance solutions. Just prior to the addition of 1 or 10 mM MnCl2 the baseline fluorescence was recorded for 20 s. The Ca^2+-independent, TRPM7-mediated fura-2 quench by Mn^2+ was then recorded for 40 s.
Fluorescence data was collected in SoftMax Pro (Molecular Devices) and processed in Microsoft Excel 2007. Replicate fluorescence traces (time vs. intensity) were averaged and the Z′-factors were calculated. Mean, standard deviation (sdev), and Z′-factors at each time point were plotted using IGOR PRO (Wavemetrics). […] These values were background-corrected (WT-HEK293 signal subtracted) and normalized to vehicle controls.
TRPM7-HEK293 cells and HEK293 cells were plated at 60,000 cells/well. Cells were incubated at 37° C. for 60 min with KRH containing 2 mM probenecid, 0.1% pluronic F-127, and 2 μM fura-2-AM. After a wash step, the cells were pre-incubated with LaCl3 (serial diluted 2:1 from 7.0 mM to 9.6 μM) or 2-APB (serial diluted 2:1 from 500-0.69 μM) at 37° C. for 15 min during baseline measurements.

[2] = target: T1, TRPM7 (Mus musculus, UniProt Q923J1); set-up: host or cells: TRPM7-HEK293 and CHOK1-TRPM7 cells as reported earlier; conditions: cited from earlier work
T1 sequence (Q923J1 whole entry): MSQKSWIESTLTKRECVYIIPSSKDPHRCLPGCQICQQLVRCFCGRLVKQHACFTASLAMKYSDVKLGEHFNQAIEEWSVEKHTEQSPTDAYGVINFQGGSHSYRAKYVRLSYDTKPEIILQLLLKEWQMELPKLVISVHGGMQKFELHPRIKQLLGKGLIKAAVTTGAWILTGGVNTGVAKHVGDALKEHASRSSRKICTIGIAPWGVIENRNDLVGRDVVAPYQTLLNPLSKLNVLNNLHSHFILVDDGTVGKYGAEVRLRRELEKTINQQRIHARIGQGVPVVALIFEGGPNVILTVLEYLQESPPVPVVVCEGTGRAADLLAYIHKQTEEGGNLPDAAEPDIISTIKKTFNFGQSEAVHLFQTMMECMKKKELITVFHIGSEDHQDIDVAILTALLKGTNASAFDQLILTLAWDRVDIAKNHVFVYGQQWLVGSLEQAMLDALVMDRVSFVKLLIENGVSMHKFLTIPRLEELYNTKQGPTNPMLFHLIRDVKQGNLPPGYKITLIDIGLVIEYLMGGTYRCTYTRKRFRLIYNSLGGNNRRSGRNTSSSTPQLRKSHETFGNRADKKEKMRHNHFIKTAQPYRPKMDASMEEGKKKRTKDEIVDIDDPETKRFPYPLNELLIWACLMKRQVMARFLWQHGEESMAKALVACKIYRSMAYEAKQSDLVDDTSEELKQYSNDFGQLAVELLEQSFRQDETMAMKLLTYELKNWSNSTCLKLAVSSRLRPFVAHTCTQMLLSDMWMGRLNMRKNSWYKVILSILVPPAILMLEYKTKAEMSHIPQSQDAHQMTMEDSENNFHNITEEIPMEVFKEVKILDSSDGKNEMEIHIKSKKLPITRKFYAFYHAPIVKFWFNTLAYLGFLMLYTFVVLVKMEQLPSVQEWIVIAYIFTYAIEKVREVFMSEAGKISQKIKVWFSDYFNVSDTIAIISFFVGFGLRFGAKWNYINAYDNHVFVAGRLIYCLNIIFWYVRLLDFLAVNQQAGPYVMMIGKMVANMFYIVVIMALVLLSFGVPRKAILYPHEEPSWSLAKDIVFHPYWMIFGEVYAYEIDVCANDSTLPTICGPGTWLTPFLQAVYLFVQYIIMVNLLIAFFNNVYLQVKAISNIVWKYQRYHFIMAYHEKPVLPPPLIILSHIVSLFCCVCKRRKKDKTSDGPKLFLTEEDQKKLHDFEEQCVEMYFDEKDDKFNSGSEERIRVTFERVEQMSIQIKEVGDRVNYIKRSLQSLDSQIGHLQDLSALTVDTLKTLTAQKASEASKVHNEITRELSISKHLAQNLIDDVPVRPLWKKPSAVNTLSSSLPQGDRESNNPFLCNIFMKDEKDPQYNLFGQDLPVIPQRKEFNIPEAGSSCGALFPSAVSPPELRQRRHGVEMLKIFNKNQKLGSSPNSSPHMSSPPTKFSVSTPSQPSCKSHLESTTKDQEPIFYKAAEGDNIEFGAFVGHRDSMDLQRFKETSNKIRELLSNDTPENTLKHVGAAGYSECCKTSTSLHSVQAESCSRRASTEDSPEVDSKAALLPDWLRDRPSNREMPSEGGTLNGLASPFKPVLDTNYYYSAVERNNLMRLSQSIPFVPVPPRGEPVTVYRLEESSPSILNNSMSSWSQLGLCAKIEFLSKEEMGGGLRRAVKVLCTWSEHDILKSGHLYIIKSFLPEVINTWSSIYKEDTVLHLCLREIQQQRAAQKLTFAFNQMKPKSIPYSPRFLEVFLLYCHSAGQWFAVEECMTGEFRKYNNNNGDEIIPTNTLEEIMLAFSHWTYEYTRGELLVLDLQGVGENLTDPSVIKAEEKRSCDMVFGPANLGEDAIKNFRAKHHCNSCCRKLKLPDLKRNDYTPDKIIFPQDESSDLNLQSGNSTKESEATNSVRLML

[3] = target: T1, TRPM7; assay: Whole-cell patch-clamp of TRPM7 currents in HEK293-TRPM7; format: cell-based; set-up: FLAG; expressed in transfected cells; host or cells: tetracycline-inducible HEK293 cells (pcDNA4/TO vector); conditions: for IC50: read-out: IC50, inhibition of TRPM7 currents
Experimental: Error bars represent S.E.M. Corresponding I/V relationships are representative currents in response to voltage ramps obtained at 500 s. […] Currents were extracted at +80 mV at 500 s, normalized to the maximal current amplitude before application (200 s), plotted against waixenicin A concentration, and approximated by dose-response fit function (n=8-10). […] Same analysis as in FIG. 9A. Error bars represent S.E.M.
Patch-clamp experiments were performed in the whole-cell configuration at 24° C. All data were acquired with PatchMaster (HEKA) software controlling an EPC-9 amplifier (HEKA, Lambrecht, Germany) and analyzed using FitMaster (HEKA) and IGOR PRO (Wavemetrics, USA). Voltage ramps of 50 ms spanning from −100 to +100 mV were delivered from a holding potential of 0 mV at a rate of 0.5 Hz. Voltages were corrected for liquid junction potentials (10 mV). Currents were filtered at 2.9 kHz and digitized at 100 μs intervals. Current amplitudes were extracted at +80 mV and −80 mV for analysis and display.
To activate TRPM7 currents, intracellular Mg^2+ and Mg-ATP were washed out by perfusion with Mg^2+- and ATP-free internal solution. Whole-cell currents were elicited by voltage ramps from −100 to +100 mV delivered at 0.5 Hz and current amplitudes were extracted at +80 mV and plotted versus time of the experiment. […] The corresponding current-voltage (I/V) relationships are illustrated by representative ramp currents extracted at 500 s. […] Outward and inward TRPM7 currents responded in a similar manner to waixenicin A treatment (FIG. 10A), resulting in the same IC50.
To better mimic physiologic conditions, we clamped the intracellular solution to 700 μM free internal Mg^2+ and only omitted Mg-ATP to achieve TRPM7 activation. […] The corresponding I/V relationships are illustrated by representative ramp currents.

[4] = read-out: IC50, inhibition of the TRPM7-mediated fura-2 quench by Mn2+, TRPM7-HEK293, 15 min pre-incubation at 37° C., 10 mM MnCl2, endpoint 10 s after MnCl2 addition

Sequence of murine TRPM7 (Q923J1 whole entry): as above

SMILES | stability of stock solution in cold storage (-20° C., 50 mM in MeOH) | stability of dried film, vacuum packed aliquots (stored at -20° C.) | IC50 [1, 4] [µM] | dose dependence of inhibition of TRPM7-mediated fura-2 quench by Mn2+ [1] | inhibition of TRPM7 mediated inward current ([2]; 100 μM, divalent-free extracellular solutions, TRPM7-HEK293) [%] | IC50 ([2]; whole-cell recordings, TRPM7-HEK293 and CHOK1-TRPM7 cells, read-out: IC50, TRPM7 mediated outward current) [µM] | effect on Mn2+-induced fluorescence quench ([1]; FIG. 8A, 10 mM MnCl2, HEK293-TRPM7) | block of channel conductance ([2]; 10 μM) | block of inward TRPM7-mediated currents ([2]; 10 mM) | IC50 ([3]; 0 [Mg2+]i, outward currents at +80 mV at 500 s) [µM] | inhibition of TRPM7 currents ([3]; 10 μM for 300 s, +80 mV, Mg2+- and ATP-free internal solution) | TRPM7 current density after application ([3]; 10 μM for 300 s, +80 mV, Mg2+- and ATP-free internal solution, plateau about 130 pA/pF before) [pA/pF] | block of TRPM7 current ([3]; 10 μM, 700 μM free internal Mg2+, Mg-ATP omitted) | IC50 ([3]; 700 μM free internal Mg2+) [µM] | reversibility of inhibitory effect on washout ([3]; washout for another 300 s) | IC50 ([1]; read-out: IC50 of the maximal slope of the Mn2+ quench, HEK293-TRPM7, 15 min incubation before 10 mM MnCl2) [µM]
NCCOB(c1ccccc1)c1ccccc1 [2-APB, 2-aminoethoxydiphenyl borate] | apparent compound degradation over the course of one week | only remained fully potent when used within a two month period | 56 | dose dependent inhibition | 77 | 160 ± 14 |  |  |  |  |  |  |  |  |  | 
[Cl][La]([Cl])[Cl] [La^3+, LaCl3] |  |  | 760 | dose dependent inhibition |  |  | reduced Mn^2+-induced fluorescence quench | ineffective | almost completely blocked |  |  |  |  |  |  | 
C=C1CC/C=C(\C)CC[C@@H]2C([C@H](C/C=C(\C)COC(C)=O)OC(C)=O)=CO[C@H](OC(C)=O)[C@@H]12 [waixenicin A] |  |  |  | dose-dependent manner |  |  |  |  |  | 7 | approximately 50% | 67 | completely blocked the current | 0.016 | failed to reverse its inhibitory effect | 12
